The values below come from patent publication US12594276B2, “Inhibitors of human immunodeficiency virus replication” (ViiV Healthcare UK (No.5) Limited, priority 2024, dated 2026).

Some results are limits rather than exact numbers.

Data set [1] deals with recombinant NL4-3 virus (nef section replaced with Renilla luciferase gene) in MT-2 cells. Kind of data set: HIV cell culture assay (antiviral activity, luciferase readout). Particulars: Renilla, NL43, MT-2 cells infected for 4-5 days with recombinant NL4-3 Renilla luciferase virus. It is filed as cell-based. In a few lines: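 MT-2 cells were infected for 4-5 days with reporter virus made by transfecting the recombinant NL4-3 proviral clone into 293T cells, in the presence of serial compound dilutions. Luciferase activity was read with a live-cell substrate. EC50 came from the exponential median effect equation, (Fa)=1/[1+(ED50/drug conc.)m].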

Data set [2] in a line: Compound cytotoxicity, XTT-based colorimetric assay. It is filed as cell-based. Particulars: human; uninfected MT2 cells, day 4, XTT; read-out: CC50. In a few lines:
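CC50 derived from XTT colorimetric signal measured on day 4 in MT2 cells that were not infected. All other steps followed the antiviral assay protocol.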

As for `COCCCNc1cc(C2CCC(F)(F)CC2)nc2nc([C@H](Cc3cc(F)cc(F)c3)NC(=O)Cn3nc(C(F)F)c4c3C(F)(F)[C@@H]3C[C@H]43)n(-c3ccc(Cl)c4c(NS(C)(=O)=O)nn(CCCOC)c34)c(=O)c12` (atropisomer, axis not shown; (P)) [Example 285, N-[(1S)-1-[(3P)-3-[4-chloro-3-methanesulfonamido-1-(3-methoxypropyl)-1H-indazol-7-yl]-7-(4,4-difluorocyclohexyl)-5-[(3-methoxypropyl)amino]-4-oxo-3H,4H-pyrido[2,3-d]pyrimidin-2-yl]-2-(3,5-difluorophenyl)ethyl]-2-[(2S,4R)-9-(difluoromethyl)-5,5-difluoro-7,8-diazatricyclo[4.3.0.0^2,^4]nona-1(6),8-dien-7-yl]acetamide], the EC50 in data set [1] came out at 0.009 nM. Moreover, in data set [2], the CC50 at 4 days was greater than 50 nM.
Taken in the same sequence, the figures for `Cc1cc(C2CCC(F)(F)CC2)nc2nc([C@H](Cc3cc(F)cc(F)c3)NC(=O)Cn3nc(C4CC4)c4c3C[C@@H]3C[C@H]43)n(-c3ccc(Cl)c4c(NS(C)(=O)=O)nn(CC5(N6C[C@@H](C)O[C@@H](C)C6)CC5)c34)c(=O)c12` (relative stereo) [Example 691, N-[(1S)-1-[(3P)-3-[4-chloro-1-({1-[(2R,6S)-2,6-dimethylmorpholin-4-yl]cyclopropyl}methyl)-3-methanesulfonamido-1H-indazol-7-yl]-7-(4,4-difluorocyclohexyl)-5-methyl-4-oxo-3H,4H-pyrido[2,3-d]pyrimidin-2-yl]-2-(3,5-difluorophenyl)ethyl]-2-[(2R*,4R*)-9-cyclopropyl-7,8-diazatricyclo[4.3.0.0^2,^4]nona-1(6),8-dien-7-yl]acetamide] were 0.007 nM and greater than 20 nM.
Taken in the same sequence, the figures for `Cc1cc(C2(C)CCC(F)(F)CC2)nc2nc([C@H](Cc3cc(F)cc(F)c3)NC(=O)Cn3nc(C(F)F)c4c3C(F)(F)[C@@H]3C[C@H]43)n(-c3ccc(Cl)c4c(NS(C)(=O)=O)nn(CCN5CC(C)(C)OC(C)(C)C5)c34)c(=O)c12` (atropisomer, axis not shown; (P)) [Example 507, N-[(1S)-1-[(3P)-3-{4-chloro-3-methanesulfonamido-1-[2-(2,2,6,6-tetramethylmorpholin-4-yl)ethyl]-1H-indazol-7-yl}-7-(4,4-difluoro-1-methylcyclohexyl)-5-methyl-4-oxo-3H,4H-pyrido[2,3-d]pyrimidin-2-yl]-2-(3,5-difluorophenyl)ethyl]-2-[(2S,4R)-9-(difluoromethyl)-5,5-difluoro-7,8-diazatricyclo[4.3.0.0^2,^4]nona-1(6),8-dien-7-yl]acetamide] were 0.021 nM and greater than 20 nM.
On the same counts, the results for `Cc1cc(C2(F)CCC(F)(F)CC2)nc2nc([C@H](Cc3cc(F)cc(F)c3)NC(=O)Cn3nc(C4CC4)c4c3C[C@@H]3C[C@H]43)n(-c3ccc(Cl)c4c(NS(C)(=O)=O)nn(CCN5CCO[C@H](C(C)C)C5)c34)c(=O)c12` (atropisomer, axis not shown; (P)) [Example 582, N-[(1S)-1-[(3P)-3-(4-chloro-3-methanesulfonamido-1-{2-[(2R)-2-(propan-2-yl)morpholin-4-yl]ethyl}-1H-indazol-7-yl)-5-methyl-4-oxo-7-(1,4,4-trifluorocyclohexyl)-3H,4H-pyrido[2,3-d]pyrimidin-2-yl]-2-(3,5-difluorophenyl)ethyl]-2-[(2S,4S)-9-cyclopropyl-7,8-diazatricyclo[4.3.0.0^2,^4]nona-1(6),8-dien-7-yl]acetamide] are 0.017 nM and greater than 20 nM.
`COCCCn1nc(NS(C)(=O)=O)c2c(Cl)ccc(-n3c([C@H](Cc4cc(F)cc(F)c4)NC(=O)Cn4nc(C(F)F)c5c4C(F)(F)[C@@H]4C[C@H]54)nc4nc(C5CCC(F)(F)CC5)cc(NCCC5CCO5)c4c3=O)c21` (stereo partly drawn) [Example 564, N-[(1S)-1-[(3P)-3-[4-chloro-3-methanesulfonamido-1-(3-methoxypropyl)-1H-indazol-7-yl]-7-(4,4-difluorocyclohexyl)-5-{[2-(oxetan-2-yl)ethyl]amino}-4-oxo-3H,4H-pyrido[2,3-d]pyrimidin-2-yl]-2-(3,5-difluorophenyl)ethyl]-2-[(2S,4R)-9-(difluoromethyl)-5,5-difluoro-7,8-diazatricyclo[4.3.0.0^2,^4]nona-1(6),8-dien-7-yl]acetamide]: the EC50 in data set [1] was 0.012 nM. Further, the CC50 at 4 days in data set [2] is greater than 20 nM.
Regarding `CCc1cc(C2CCC(F)(F)CC2)nc2nc([C@H](Cc3cc(F)cc(F)c3)NC(=O)Cn3nc(C4CC4)c4c3C(F)(F)[C@@H]3C[C@H]43)n(-c3ccc(Cl)c4c(NS(C)(=O)=O)nn(CCCOC)c34)c(=O)c12` (atropisomer, axis not shown; (P)) [Example 639, N-[(1S)-1-[(3P)-3-[4-chloro-3-methanesulfonamido-1-(3-methoxypropyl)-1H-indazol-7-yl]-7-(4,4-difluorocyclohexyl)-5-ethyl-4-oxo-3H,4H-pyrido[2,3-d]pyrimidin-2-yl]-2-(3,5-difluorophenyl)ethyl]-2-[(2S,4R)-9-cyclopropyl-5,5-difluoro-7,8-diazatricyclo[4.3.0.0^2,^4]nona-1(6),8-dien-7-yl]acetamide], in data set [1], the EC50 is 0.025 nM. Also, the CC50 at 4 days in data set [2] is greater than 50 nM.
For the compound `C[C@@H]1CN(Cc2cc(C3CCC(F)(F)CC3)nc3nc([C@H](Cc4cc(F)cc(F)c4)NC(=O)Cn4nc(C(F)F)c5c4C(F)(F)[C@@H]4C[C@H]54)n(-c4ccc(Cl)c5c(NS(C)(=O)=O)nn(CCN6CCC(F)CC6)c45)c(=O)c23)C[C@H](C)O1` (atropisomer, axis not shown; (P)) [Example 527, N-[(1S)-1-[(3P)-3-{4-chloro-1-[2-(4-fluoropiperidin-1-yl)ethyl]-3-methanesulfonamido-1H-indazol-7-yl}-7-(4,4-difluorocyclohexyl)-5-{[(2R,6S)-2,6-dimethylmorpholin-4-yl]methyl}-4-oxo-3H,4H-pyrido[2,3-d]pyrimidin-2-yl]-2-(3,5-difluorophenyl)ethyl]-2-[(2S,4R)-9-(difluoromethyl)-5,5-difluoro-7,8-diazatricyclo[4.3.0.0^2,^4]nona-1(6),8-dien-7-yl]acetamide], in data set [1], the EC50 was 0.012 nM. The CC50 at 4 days in data set [2] is greater than 20 nM.
Taken in the same sequence, the figures for `C[C@@H](CN1C[C@H](F)C[C@H](F)C1)n1nc(NS(C)(=O)=O)c2c(Cl)ccc(-n3c([C@H](Cc4cc(F)cc(F)c4)NC(=O)Cn4nc(C(F)F)c5c4C(F)(F)[C@@H]4C[C@H]54)nc4nc(C5CCC(F)(F)CC5)cc(C5CC5)c4c3=O)c21` (atropisomer, axis not shown; (P)) [Example 735, N-[(1S)-1-[(3P)-3-{4-chloro-1-[(2S)-1-[(3R,5S)-3,5-difluoropiperidin-1-yl]propan-2-yl]-3-methanesulfonamido-1H-indazol-7-yl}-5-cyclopropyl-7-(4,4-difluorocyclohexyl)-4-oxo-3H, 4H-pyrido[2,3-d]pyrimidin-2-yl]-2-(3,5-difluorophenyl)ethyl]-2-[(2S,4R)-9-(difluoromethyl)-5,5-difluoro-7,8-diazatricyclo[4.3.0.0^2,^4]nona-1(6),8-dien-7-yl]acetamide] were 0.018 nM and greater than 20 nM.
On the same counts, the results for `CS(=O)(=O)Nc1nn(CCN2CCC(F)CC2)c2c(-n3c([C@H](Cc4cc(F)cc(F)c4)NC(=O)Cn4nc(C5CC5)c5c4C[C@@H]4C[C@H]54)nc4nc(C5CCC(F)(F)CC5)cc(C(F)F)c4c3=O)ccc(Cl)c12` (atropisomer, axis not shown; (P)) [Example 371, N-[(1S)-1-[(3P)-3-{4-chloro-1-[2-(4-fluoropiperidin-1-yl)ethyl]-3-methanesulfonamido-1H-indazol-7-yl}-7-(4,4-difluorocyclohexyl)-5-(difluoromethyl)-4-oxo-3H,4H-pyrido[2,3-d]pyrimidin-2-yl]-2-(3,5-difluorophenyl)ethyl]-2-[(2S,4S)-9-cyclopropyl-7,8-diazatricyclo[4.3.0.0^2,^4]nona-1(6),8-dien-7-yl]acetamide] are 0.009 nM and greater than 20 nM.
For the compound `COCCCn1nc(NS(C)(=O)=O)c2c(Cl)ccc(-n3c([C@H](Cc4cc(F)cc(F)c4)NC(=O)Cn4nc(C(F)F)c5c4C(F)(F)[C@@H]4C[C@H]54)nc4nc(C5CCC(F)(F)CC5)cc(CN5C[C@H](F)C[C@H](F)C5)c4c3=O)c21` (atropisomer, axis not shown; (P)) [Example 488, N-[(1S)-1-[(3P)-3-[4-chloro-3-methanesulfonamido-1-(3-methoxypropyl)-1H-indazol-7-yl]-7-(4,4-difluorocyclohexyl)-5-{[(3R,5S)-3,5-difluoropiperidin-1-yl]methyl}-4-oxo-3H,4H-pyrido[2,3-d]pyrimidin-2-yl]-2-(3,5-difluorophenyl)ethyl]-2-[(2S,4R)-9-(difluoromethyl)-5,5-difluoro-7,8-diazatricyclo[4.3.0.0^2,^4]nona-1(6),8-dien-7-yl]acetamide], the EC50 in data set [1] amounted to 0.009 nM. In addition, the CC50 at 4 days in data set [2] is greater than 20 nM.
Take `Cc1cc(C2CCC(F)(F)CC2)nc2nc([C@H](Cc3cc(F)cc(F)c3)NC(=O)Cn3nc(C4CC4)c4c3C[C@@H]3C[C@H]43)n(-c3ccc(Cl)c4c(NS(C)(=O)=O)nn(CCN5CC(C)(C)OC(C)(C)C5)c34)c(=O)c12` (atropisomer, axis not shown; (P)) [Example 13, N-[(1S)-1-[(3P)-3-{4-chloro-3-methanesulfonamido-1-[2-(2,2,6,6-tetramethylmorpholin-4-yl)ethyl]-1H-indazol-7-yl}-7-(4,4-difluorocyclohexyl)-5-methyl-4-oxo-3H,4H-pyrido[2,3-d]pyrimidin-2-yl]-2-(3,5-difluorophenyl)ethyl]-2-[(2S,4S)-9-cyclopropyl-7,8-diazatricyclo[4.3.0.0^2,4]nona-1(6),8-dien-7-yl]acetamide]: the EC50 in data set [1] was determined as 0.011 nM. Besides, the CC50 at 4 days in data set [2] is greater than 20000 nM.
